Experimental data reported in patent US20250222044A1, “LIMOSILACTOBACILLUS REUTERI GOLDGUT-LR99 AND APPLICATION THEREOF” (priority 2024, published 2025).

Test system: Limosilactobacillus reuteri GOLDGUT-LR99
Experiment: Carbon source utilization and oxidation experiment (AN Biolog micro-pore plate)
Format: cell-based
Conditions: substrate utilization by the strain; for Utilization (Y=OD590−OD750): 37° C. anaerobic culture for 24 hours
Procedure: The AN Biolog micro-pore plate was used for measuring the utilization and oxidation conditions of different carbon sources of Limosilactobacillus reuteri GOLDGUT-LR99, the AN microplate used nutrients and biochemical reagents, and the method included the following steps: 1 mL of Limosilactobacillus reuteri GOLDGUT-LR99 bacterial liquid of the strain to be detected at the end of logarithmic growth was pipetted and centrifuged, then the supernatant was removed, the cells was washed three times with the seed liquid and suspended with 1 mL of the seed liquid, 50 μL of the suspension was taken and diluted in 10 mL of the seed liquid, the diluent was subpacked in a Biolog plate (100 μL/pore) after mixing uniformly, and the Biolog plate with the diluent was placed in 37° C. for anaerobic culture for 24 hours. After the culture was finished, OD590 and OD750 were detected by using microplate reader, the numerical values were recorded, and the utilization conditions of carbohydrate, organic acid and other substances of the Limosilactobacillus reuteri GOLDGUT-LR99 were calculated, wherein the calculation method was as follows: Y=OD590−OD750;

Structure (SMILES)	utilization effect (in words)	Utilization (Y=OD590−OD750)
OCC1OC(OC2OC(CO)C(O)C(O)C2O)C(O)C(O)C1O [L-Trehalose]	better utilization effect	++ (when Y > 0.1, it is shown that the strain was able to effectively utilize this substance, marked as++)
CC(C)[C@H](N)C(=O)O [L-Valine]	good utilization effect	+ (when 0.1 > Y > 0.05, it is shown that the strain was able to better utilize this substance, marked as +)
OC[C@H]1O[C@H](O[C@H]2[C@H](O)[C@@H](O)[C@H](O)O[C@@H]2CO)[C@H](O)[C@@H](O)[C@@H]1O [Maltose]		− (when Y < 0.05, it is shown that the strain was not able to utilize this substance, marked as −)
OC[C@H]1O[C@@](CO)(O[C@H]2O[C@H](CO)[C@@H](O)[C@H](O)[C@H]2O)[C@@H](O[C@H]2O[C@H](CO)[C@@H](O)[C@H](O)[C@H]2O)[C@@H]1O [Melezitose]		++ (when Y > 0.1, it is shown that the strain was able to effectively utilize this substance, marked as++)
COC(C)=O [Methyl acetate]		++ (when Y > 0.1, it is shown that the strain was able to effectively utilize this substance, marked as++)
COC(=O)C(C)O (stereo not drawn) [Methyl lactate]		+ (when 0.1 > Y > 0.05, it is shown that the strain was able to better utilize this substance, marked as +)
CC(=O)N[C@H]1C(O)O[C@H](CO)[C@H](O)[C@@H]1O (stereo partly drawn) [N-Acetyl-D-galactosamine]		− (when Y < 0.05, it is shown that the strain was not able to utilize this substance, marked as −)
CC(=O)N[C@H]1C(O)O[C@H](CO)[C@@H](O)[C@@H]1O (stereo partly drawn) [N-Acetyl-D-glucosamine]		− (when Y < 0.05, it is shown that the strain was not able to utilize this substance, marked as −)
CC(=O)N[C@H]1[C@@H](O)[C@H](O)[C@@H](CO)O[C@H]1O [N-Acetyl-β-D-mannosamine]		− (when Y < 0.05, it is shown that the strain was not able to utilize this substance, marked as −)
OC[C@H]1O[C@H](OC[C@H]2OC(O)(CO)[C@@H](O)[C@@H]2O)[C@H](O)[C@@H](O)[C@@H]1O (stereo partly drawn) [Palatinose]		++ (when Y > 0.1, it is shown that the strain was able to effectively utilize this substance, marked as++)
CCC(=O)O [Propionic acid]		− (when Y < 0.05, it is shown that the strain was not able to utilize this substance, marked as −)
CC(=O)C(=O)O [Pyruvic acid]		+ (when 0.1 > Y > 0.05, it is shown that the strain was able to better utilize this substance, marked as +)
OC[C@@H](O)[C@@H](O)[C@@H](O)CO [Ribitol]		− (when Y < 0.05, it is shown that the strain was not able to utilize this substance, marked as −)
OCc1ccccc1O[C@@H]1O[C@H](CO)[C@@H](O)[C@H](O)[C@H]1O [Salicin]		− (when Y < 0.05, it is shown that the strain was not able to utilize this substance, marked as −)
OC[C@H]1O[C@H](OC[C@H]2O[C@H](OC[C@H]3O[C@H](O[C@]4(CO)O[C@H](CO)[C@@H](O)[C@@H]4O)[C@H](O)[C@@H](O)[C@@H]3O)[C@H](O)[C@@H](O)[C@H]2O)[C@H](O)[C@@H](O)[C@H]1O [Stachyose]		+ (when 0.1 > Y > 0.05, it is shown that the strain was able to better utilize this substance, marked as +)
NC(=O)CCC(=O)O [Succinamide acid]		+ (when 0.1 > Y > 0.05, it is shown that the strain was able to better utilize this substance, marked as +)

Structure (SMILES)	utilization effect (in words)	Utilization (Y=OD590−OD750)
COC(=O)CCC(=O)O [Succinic acid methyl ester]		− (when Y < 0.05, it is shown that the strain was not able to utilize this substance, marked as −)
OC[C@H]1O[C@@](CO)(O[C@H]2O[C@H](CO)[C@@H](O)[C@H](O)[C@H]2O)[C@@H](O)[C@@H]1O [Sucrose]		− (when Y < 0.05, it is shown that the strain was not able to utilize this substance, marked as −)
Cc1cn([C@H]2C[C@H](O)[C@@H](CO)O2)c(=O)[nH]c1=O [Thymidine]		− (when Y < 0.05, it is shown that the strain was not able to utilize this substance, marked as −)
O=c1ccn([C@@H]2O[C@H](COP(=O)(O)O)[C@@H](O)[C@H]2O)c(=O)[nH]1 [Uridine-5′-monophosphate]		− (when Y < 0.05, it is shown that the strain was not able to utilize this substance, marked as −)
O=c1ccn([C@@H]2O[C@H](CO)[C@@H](O)[C@H]2O)c(=O)[nH]1 [Uridine]		− (when Y < 0.05, it is shown that the strain was not able to utilize this substance, marked as −)
OC[C@@H](O)[C@@H](O)CO [i-Erythritol]		− (when Y < 0.05, it is shown that the strain was not able to utilize this substance, marked as −)
O[C@H]1[C@H](O)[C@@H](O)[C@H](O)[C@@H](O)[C@H]1O [m-Inositol]		+ (when 0.1 > Y > 0.05, it is shown that the strain was able to better utilize this substance, marked as +)
O=C(O)C(O)C(O)C(=O)O (stereo not drawn) [m-Tartaric acid]		+ (when 0.1 > Y > 0.05, it is shown that the strain was able to better utilize this substance, marked as +)
O=C(CO)[C@@H](O[C@H]1O[C@H](CO)[C@@H](O)[C@H](O)[C@H]1O)[C@H](O)[C@H](O)CO [turanose]	better utilization effect	
OC[C@H]1O[C@@H]2O[C@H]3[C@H](O)[C@@H](O)[C@@H](O[C@H]4[C@H](O)[C@@H](O)[C@@H](O[C@H]5[C@H](O)[C@@H](O)[C@@H](O[C@H]6[C@H](O)[C@@H](O)[C@@H](O[C@H]7[C@H](O)[C@@H](O)[C@@H](O[C@H]1[C@H](O)[C@H]2O)O[C@@H]7CO)O[C@@H]6CO)O[C@@H]5CO)O[C@@H]4CO)O[C@@H]3CO [α-Cyclodextrin]		++ (when Y > 0.1, it is shown that the strain was able to effectively utilize this substance, marked as++)
OC[C@H]1O[C@H](O)[C@H](O)[C@@H](O)[C@@H]1O [α-D-Glucose]		− (when Y < 0.05, it is shown that the strain was not able to utilize this substance, marked as −)
OC[C@H]1O[C@@H](O[C@H]2[C@H](O)[C@@H](O)[C@@H](O)O[C@@H]2CO)[C@H](O)[C@@H](O)[C@H]1O [α-D-Lactose]		− (when Y < 0.05, it is shown that the strain was not able to utilize this substance, marked as −)
CCC(O)C(=O)O (stereo not drawn) [α-Hydroxybutyric acid]		− (when Y < 0.05, it is shown that the strain was not able to utilize this substance, marked as −)
O=C(O)CCC(=O)C(=O)O [α-Ketoglutaric acid]		− (when Y < 0.05, it is shown that the strain was not able to utilize this substance, marked as −)
CCCC(=O)C(=O)O [α-Ketovaleric acid]		− (when Y < 0.05, it is shown that the strain was not able to utilize this substance, marked as −)
